# Marks after values point to notes of the source that are not given here.
# Tests used:
# Sa37 sarcoma = assay: Antitumour activity in S37 ascites sarcoma bearing mice (tumour weight, total ascitocrit, survival); assay type: in vivo, mice H
# Description: (§1) The antineoplastic activity of the compounds of the invention has been investigated testing the compounds of the chemical group "in vivo" against experimental rodent tumors such as the solid form of Ehrlich tumour (STE, originally mammary adenocarcinoma), tumor HK (also transplantable originally mammary adenocarcinoma), Krebs' ascites tumour (Kr2), S37 ascites sarcoma, Nemeth-Keller lymphoma (NK), all maintained in mice H, Gardner lymphosarcoma (LsG, maintained in mice C3H), P388 and/or L1210 leukemia (maintained in DBA2 mice), B16 metastasizing melanocarcinoma (maintained in C57B1/6 mice) and Yoshida ascites reticulosarcoma (Y, maintained in Wistar rats) in experiments according to Jelinek, V. [Neoplasma 12, 469 (1965); ibid 7, 146 (1960)] and in "in vitro" experiments using radioactive precursors of nucleic acids and proteins according to Miko, M. et al. [Cancer Res 39, 4242 (1979); Neoplasma 26, 449 (1979); ibid 16, 161 (1969)] with minor modifications [Mattern, J.: Studies on the Drug Sensitivity of Short Term Cultured Tumour Cell Suspensions. In "Human Tumours in Short Term Culture" (Dendy, P.P. ed.), p.301, Academic Press 1976]. The Cox's proportional-hazards model was used for survival evaluation and optimal dose calculation according to Carter, V.H. et al. [cf Cancer Res. 42, 2963 (1982)].
# Eighty female mice H weighing approximately 20 g were divided into four groups: one control group and three experimental groups of 20 animal each. A lethal dose of the Sa37 sarcoma ascitic fluid was implanted intraperitoneally to all the animals. The animals of test groups were treated using the compound suspended in water. The suspension contained the substance in such a concentration that dose 0.6, 0.4 and/or 0.2ml of the suspension p.o. was equal to dose 240, 160 and/or 80 mg/kg p.o., respectively. The drug was administered to the experimental animals once, a day after tumour transplantation. On the tenth day after the tumour transplantation, half of the animals in each group were killed by ether anaesthesia, ascites were emptied after laparotomia and the tumour weight was assessed in all animals from the weight difference before and after laparotomia and ascites removing. In ascites fluid the volume of tumour cell fraction was determined. The remaining animals were left to monitor the time of death and survival time was followed. […] It was also observed that the treated animals survived longer than untreated control animals. […] The results of the experiment are summarized in the following table: Antitumour activity of 6-[2-(2-hydroxyethyl)aminoethyl]5,11-dioxo-5,6-dihydro-11H-indeno[1,2-c]isoquinoline (the substance I, X=2) in S37 sarcoma bearing mice.
# In an analogous experiment carried out on the animals with implanted Sa37 sarcoma the substance I (X=2) was administered in seven daily doses, and the substance I (X=3) in four days. The results of the experiment are summarized in the following table: Antitumour activity of 6-[2-(2-hydroxyethyl)aminoethyl]5,11-dioxo-5,6-dihydro-11H-indeno[1,2-c]isoquinoline (the substance I, X=2) and 6-[3-(2-hydroxyethyl)aminopropyl]5,11-dioxo-5,6-dihydro-11H-indeno[1,2-c]isoquinoline (the substance I, X=3) in S37 bearing mice.
# In an experiment carried out on the animals with implanted Sa37 sarcoma the substance I (X=0) was administered in eight daily doses (analogously as in example 6).
# L1210 leukemia cells = assay: Cytotoxicity: incorporation of [14C]amino-acid mixture into trichloroacetic acid-insoluble fraction of cells; assay type: cell-based, DBA2 mice; settings: Mus musculus; Tumor L1210; Precursor [U-14C]Amino-acid mixture
# Description: as §1, with “(1982)]. […]” for “(1982)].”
# Yoshida reticulosarcoma = assay: Survival of rats bearing Yoshida ascites reticulosarcoma; assay type: in vivo, Wistar rats; settings: T/C
# Description: as §1
# Seventy infantile Vistar female rats weighing 63.0-64.8 g were divided into seven groups: one control group and six experimental groups of 10 animal each. A lethal dose of the Yoshida reticulosarcoma ascitic fluid was implanted intraperitoneally to all the animals. The animals of test groups were treated using the compound suspended in water. The suspension contained the substance in such a concentration that dose 0.6, 0.4 and/or 0.2 ml of the suspension was equal to dose 200, 100 and/or 50 mg/kg p.o., or 40, 20 and/or 10 mg/kg s.c., respectively. Doses of the drug were administered to the experimental animals once a day, for five consecutive days, starting on the first day after tumour transplantation. In all animals survival was followed. It was observed that the treated animals survived longer than untreated control animals. […] The results of the experiment are summarized in the following table and shown in the graph on the Fig. 1.
# Ehrlich tumour = assay: Antitumour activity against solid form of Ehrlich tumour in mice (tumour weight, survival); assay type: in vivo, mice H; settings: the fifth day after tumour transplantation; for Tumour weight (T/C, %): weighed on the fourteenth day
# Description: as §1
# Sixty female mice H weighing approximately 20 g were divided into three groups: one control group and two experimental groups of 20 animal each. A lethal dose of the 40 Ehrlich tumour homogenate was implanted subcutaneously to all the animals. The animals of test groups were treated using the compounds suspended in water. […] On the fourteenth day after the tumour transplantation, half of the animals in each group were killed by ether anaesthesia, tumours were removed and weighed. The remaining animals were left to monitor the time of death and survival time was followed. […] It was also observed that the treated animals survived longer than untreated control animals.
# [1] = 10 mg/kg p.o., seven daily doses
# [2] = 20 mg/kg p.o., seven daily doses
# [3] = 30 mg/kg p.o., seven daily doses
# [4] = 80 mg/kg p.o. once, a day after tumour transplantation, assessed on the tenth day
# [5] = 160 mg/kg p.o. once, a day after tumour transplantation, assessed on the tenth day
# [6] = 240 mg/kg p.o. once, a day after tumour transplantation, assessed on the tenth day
structure (smiles),measurement,setting,value
"O=C1c2ccccc2-c2c1c1ccccc1c(=O)n2CCNCCO [I (X=2), 6-[2-(2-hydroxyethyl)aminoethyl]-5,11-dioxo-5,6-dihydro-11H-indeno[1,2-c]isoquinoline]","Survival time (T/C, %)",Sa37 sarcoma; [1],129%
same,"Total ascitocrit (T/C, %)",Sa37 sarcoma; [1],73^b) %
same,"Tumour weight (T/C, %)",Sa37 sarcoma; [1],66^b) %
same,"Survival time (T/C, %)",Sa37 sarcoma; [2],129^a) %
same,"Total ascitocrit (T/C, %)",Sa37 sarcoma; [2],73^a) %
same,"Tumour weight (T/C, %)",Sa37 sarcoma; [2],64^b) %
same,"Survival time (T/C, %)",Sa37 sarcoma; [3],86%
same,"Total ascitocrit (T/C, %)",Sa37 sarcoma; [3],40^b) %
same,"Tumour weight (T/C, %)",Sa37 sarcoma; [3],32^b) %
same,"Survival time (T/C, %)","Sa37 sarcoma; 80 mg/kg p.o. once, a day after tumour transplantation",107%
same,"Total ascitocrit (T/C, %)",Sa37 sarcoma; [4],64^c) %
same,"Tumour weight (T/C, %)",Sa37 sarcoma; [4],61^c) %
same,"Survival time (T/C, %)","Sa37 sarcoma; 160 mg/kg p.o. once, a day after tumour transplantation",111%
same,"Total ascitocrit (T/C, %)",Sa37 sarcoma; [5],65^c) %
same,"Tumour weight (T/C, %)",Sa37 sarcoma; [5],59^c) %
same,"Survival time (T/C, %)","Sa37 sarcoma; 240 mg/kg p.o. once, a day after tumour transplantation",119^b) %
same,"Total ascitocrit (T/C, %)",Sa37 sarcoma; [6],47^c) %
same,"Tumour weight (T/C, %)",Sa37 sarcoma; [6],42^c) %
same,IC50,L1210 leukemia cells,78 µM
same,Period of survival (% of control),Yoshida reticulosarcoma; p.o. 50 mg/kg once a day for five consecutive days,132%
same,Period of survival (% of control),Yoshida reticulosarcoma; p.o. 100 mg/kg once a day for five consecutive days,"230^b,^e) %"
same,Period of survival (% of control),Yoshida reticulosarcoma; p.o. 200 mg/kg once a day for five consecutive days,"219^b,^d) %"
same,Period of survival (% of control),Yoshida reticulosarcoma; s.c. 10 mg/kg once a day for five consecutive days,203 ^b) %
same,Period of survival (% of control),Yoshida reticulosarcoma; s.c. 20 mg/kg once a day for five consecutive days,139^a) %
same,Period of survival (% of control),Yoshida reticulosarcoma; s.c. 40 mg/kg once a day for five consecutive days,86%
same,"Survival time (T/C, %)",Ehrlich tumour; 200 mg/kg p.o. once,111%
same,"Tumour weight (T/C, %)",Ehrlich tumour; 200 mg/kg p.o. once,79^a) %
same,"Survival time (T/C, %)",Ehrlich tumour; 400 mg/kg p.o. once,152^a) %
same,"Tumour weight (T/C, %)",Ehrlich tumour; 400 mg/kg p.o. once,31^b) %
